These results are taken from ChEMBL document CHEMBL1124630, “Fluoronaphthyridines and quinolones as antibacterial agents. 1. Synthesis and structure-activity relationships of new 1-substituted derivatives” (J Med Chem, 1989).

In one data set the test system is Escherichia coli. The experiment in a line: In vitro antibacterial activity against Escherichia coli (A 15119). The class given is functional. The note with it: Escherichia coli; read-out: MIC.
For a further data set, the system named is Enterobacter cloacae. The data set can be described thus: In vitro antibacterial activity against Enterobacter cloacae (A 9656). Conditions: Enterobacter cloacae; read-out: MIC. The class given is functional.
The test system of another data set is Klebsiella pneumoniae. The experiment in a line: In vitro antibacterial activity against Klebsiella pneumoniae (A 9664). In kind it is functional. The note with it: Klebsiella pneumoniae; read-out: MIC.
Another data set deals with Morganella morganii. The data set can be described thus: In vitro antibacterial activity against Morganella morganii (A 15153). In kind it is functional. Conditions: Morganella morganii; read-out: MIC.
The test system of data set [1] is Pseudomonas aeruginosa. The data set can be described thus: In vitro antibacterial activity against Pseudomonas aeruginosa (A 9843). The class given is functional. The note with it: Pseudomonas aeruginosa; read-out: MIC.
The test system of data set [2] is Staphylococcus aureus. The data set can be described thus: In vitro antibacterial activity against Staphylococcus aureus Smith (A9537). The class given is functional. Conditions: Staphylococcus aureus; read-out: MIC.
The test system of another data set is Canis familiaris. The data set can be described thus: Area under the concentration/ time in plasma after oral administration in dog (25 mg/kg). The note with it: in vivo. The class given is ADME, organism-based, Canis lupus familiaris.
The nature of data set [3]: Maximum concentration in plasma after oral administration in dog (25 mg/kg). In kind it is ADME, organism-based, Canis lupus familiaris. Set-up: dose 25 mg/kg, route oral.
Data set [4] is described as follows: Half-life in plasma after oral administration in dog (25 mg/kg). The class given is ADME, organism-based, Canis lupus familiaris.
Data set [5] can be described thus: Urinary recovery after 24 hr in plasma after oral administration in dog (25 mg/kg). Conditions: urine, read-out: UR. In kind it is ADME, organism-based, Canis lupus familiaris.
Data set [6] in a line: Lethal dose of compound in OF1-strain female swiss mice after oral administration. The note with it: mouse, in vivo. The class given is toxicity, organism-based.
Data set [7] relates to Pseudomonas aeruginosa. The experiment in a line: In vivo efficacy in systemic infection due to Pseudomonas aeruginosa (A 9843) in mice. The class given is functional. Conditions: read-out: PD50.
Data set [8] has as its system Staphylococcus aureus. The data set can be described thus: In vivo efficacy in systemic infection due to Staphylococcus aureus Smith (A 9537) in mice. In kind it is functional. Conditions: read-out: PD50.

Structures are written as SMILES. ≈ marks a conversion by molar mass, not a printed value.

Turning to `CC1(n2cc(C(=O)O)c(=O)c3cc(F)c(N4CCNCC4)cc32)CC1`, the MIC (usually the least concentration at which growth counts as inhibited) in the data set with Escherichia coli amounted to 0.06 µg/mL (≈ 0.174 µM); in the data set with Enterobacter cloacae, 0.5 µg/mL (≈ 1.45 µM); in the data set on Klebsiella pneumoniae, 0.25 µg/mL (≈ 0.724 µM); in the data set on Morganella morganii, 0.25 µg/mL (≈ 0.724 µM); in the data set with Pseudomonas aeruginosa [1], 0.5 µg/mL (≈ 1.45 µM); with Staphylococcus aureus [2], 0.25 µg/mL (≈ 0.724 µM).
In turn, `CC(C)(C)n1cc(C(=O)O)c(=O)c2cc(F)c(N3CCNCC3)cc21` registered an AUC in the data set on Canis familiaris of 50 µg/mL. Moreover, the concentration in [3] peaked (Cmax) at 6400 ng/mL. In addition, the half-life (as a rule, the time in which the quantity being followed falls by half) in data set [4] is 4.4 h. Further, the dose excreted at 24 h in [5] came out at 17%. The minimum inhibitory concentration (MIC) in the data set with Escherichia coli was 0.06 µg/mL (≈ 0.173 µM); with Enterobacter cloacae, 0.13 µg/mL (≈ 0.374 µM); in the data set with Klebsiella pneumoniae it was 0.13 µg/mL (≈ 0.374 µM); with Morganella morganii, 0.25 µg/mL (≈ 0.72 µM); with Pseudomonas aeruginosa [1] it was 0.5 µg/mL (≈ 1.44 µM); with Staphylococcus aureus [2], 0.06 µg/mL (≈ 0.173 µM). The LD50 (commonly the dose at which mortality reaches 50%) in [6] was greater than 2500 mg/kg. In addition, the ED50 is 18 mg/kg with Pseudomonas aeruginosa [7] and 8 mg/kg with Staphylococcus aureus [8].
As to `O=C(O)c1cn(Cc2ccccc2)c2cc(N3CCNCC3)c(F)cc2c1=O`, the MIC is 0.25 µg/mL (≈ 0.655 µM) in the data set with Escherichia coli; 0.5 µg/mL (≈ 1.31 µM) in the data set on Enterobacter cloacae; 0.5 µg/mL (≈ 1.31 µM) in the data set with Klebsiella pneumoniae; 4 µg/mL (≈ 10.5 µM) in the data set on Morganella morganii; 0.5 µg/mL (≈ 1.31 µM) in the data set with Pseudomonas aeruginosa [1]; 0.5 µg/mL (≈ 1.31 µM) with Staphylococcus aureus [2].
Take `CCn1cc(C(=O)O)c(=O)c2cc(F)c(N3CCNCC3)nc21` [ENOXACIN]: the MIC with Escherichia coli came to 0.13 µg/mL (≈ 0.406 µM); with Enterobacter cloacae, 0.5 µg/mL (≈ 1.56 µM); with Klebsiella pneumoniae, 0.5 µg/mL (≈ 1.56 µM); with Morganella morganii it was 0.13 µg/mL (≈ 0.406 µM); in the data set on Pseudomonas aeruginosa [1], 0.5 µg/mL (≈ 1.56 µM); with Staphylococcus aureus [2], 0.25 µg/mL (≈ 0.78 µM).
Consider `CC1(C)CC1n1cc(C(=O)O)c(=O)c2cc(F)c(N3CCNCC3)cc21` (stereo not drawn), for which the MIC with Escherichia coli was 1 µg/mL (≈ 2.78 µM); in the data set with Enterobacter cloacae, 4 µg/mL (≈ 11.1 µM); with Klebsiella pneumoniae, 2 µg/mL (≈ 5.56 µM); in the data set with Morganella morganii, 8 µg/mL (≈ 22.3 µM); with Pseudomonas aeruginosa [1], 32 µg/mL (≈ 89 µM); in the data set on Staphylococcus aureus [2], 1 µg/mL (≈ 2.78 µM).
`O=C(O)c1cn(C2CC2)c2c(F)c(N3CCNCC3)c(F)cc2c1=O`: the MIC came out at 0.03 µg/mL (≈ 0.0859 µM) in the data set on Escherichia coli; 0.06 µg/mL (≈ 0.172 µM) in the data set with Enterobacter cloacae; 0.06 µg/mL (≈ 0.172 µM) in the data set on Klebsiella pneumoniae; 0.008 µg/mL (≈ 0.0229 µM) in the data set with Morganella morganii; 0.25 µg/mL (≈ 0.716 µM) with Pseudomonas aeruginosa [1]; 0.13 µg/mL (≈ 0.372 µM) with Staphylococcus aureus [2].
With `C=C(C)n1cc(C(=O)O)c(=O)c2cc(F)c(N3CCNCC3)cc21`, the minimum inhibitory concentration (MIC) with Escherichia coli came to 0.13 µg/mL (≈ 0.392 µM); in the data set on Enterobacter cloacae, 0.06 µg/mL (≈ 0.181 µM); in the data set with Klebsiella pneumoniae, 0.25 µg/mL (≈ 0.754 µM); in the data set with Morganella morganii it was 0.13 µg/mL (≈ 0.392 µM); with Pseudomonas aeruginosa [1] it was 0.5 µg/mL (≈ 1.51 µM); in the data set on Staphylococcus aureus [2], 0.5 µg/mL (≈ 1.51 µM).
With `O=C(O)c1cn(C2CCC2)c2cc(N3CCNCC3)c(F)cc2c1=O`, the MIC in the data set with Escherichia coli was determined as 0.13 µg/mL (≈ 0.376 µM); in the data set on Enterobacter cloacae, 1 µg/mL (≈ 2.9 µM); in the data set with Klebsiella pneumoniae, 0.13 µg/mL (≈ 0.376 µM); in the data set on Morganella morganii, 0.5 µg/mL (≈ 1.45 µM); with Pseudomonas aeruginosa [1], 1 µg/mL (≈ 2.9 µM); in the data set on Staphylococcus aureus [2], 0.5 µg/mL (≈ 1.45 µM).
As to `O=C(O)c1cn(C2CC=CC2)c2cc(N3CCNCC3)c(F)cc2c1=O`, the MIC in the data set on Escherichia coli stood at 1 µg/mL (≈ 2.8 µM); in the data set with Enterobacter cloacae it was 8 µg/mL (≈ 22.4 µM); in the data set on Klebsiella pneumoniae, 1 µg/mL (≈ 2.8 µM); with Morganella morganii, 8 µg/mL (≈ 22.4 µM); with Pseudomonas aeruginosa [1], 8 µg/mL (≈ 22.4 µM); in the data set with Staphylococcus aureus [2], 2 µg/mL (≈ 5.6 µM).
Consider `CC(C)n1cc(C(=O)O)c(=O)c2cc(F)c(N3CCNCC3)cc21`, for which the MIC in the data set on Escherichia coli amounted to 0.5 µg/mL (≈ 1.5 µM); in the data set with Enterobacter cloacae, 2 µg/mL (≈ 6 µM); in the data set with Klebsiella pneumoniae, 1 µg/mL (≈ 3 µM); in the data set with Morganella morganii, 0.25 µg/mL (≈ 0.75 µM); in the data set with Pseudomonas aeruginosa [1] it was 1 µg/mL (≈ 3 µM); with Staphylococcus aureus [2], 1 µg/mL (≈ 3 µM).
`CC(C)n1cc(C(=O)O)c(=O)c2cc(F)c(N3CCNCC3)nc21`: the MIC stood at 0.25 µg/mL (≈ 0.748 µM) in the data set with Escherichia coli; 0.5 µg/mL (≈ 1.5 µM) in the data set with Enterobacter cloacae; 1 µg/mL (≈ 2.99 µM) with Klebsiella pneumoniae; 1 µg/mL (≈ 2.99 µM) in the data set on Morganella morganii; 4 µg/mL (≈ 12 µM) in the data set with Pseudomonas aeruginosa [1]; 2 µg/mL (≈ 5.98 µM) with Staphylococcus aureus [2].
`O=C(O)c1cn(CC2CC2)c2cc(N3CCNCC3)c(F)cc2c1=O`: the MIC in the data set on Escherichia coli worked out at 0.5 µg/mL (≈ 1.45 µM); in the data set on Enterobacter cloacae, 4 µg/mL (≈ 11.6 µM); with Klebsiella pneumoniae it was 2 µg/mL (≈ 5.79 µM); in the data set on Morganella morganii it was 1 µg/mL (≈ 2.9 µM); in the data set with Pseudomonas aeruginosa [1] it was 4 µg/mL (≈ 11.6 µM); in the data set with Staphylococcus aureus [2], 1 µg/mL (≈ 2.9 µM).
Consider `O=C(O)c1cn(-c2ccc(F)cc2)c2cc(N3CCNCC3)c(F)cc2c1=O` [SARAFLOXACIN], for which the MIC in the data set on Escherichia coli was 0.05 µg/mL (≈ 0.13 µM); in the data set on Klebsiella pneumoniae, 0.02 µg/mL (≈ 0.0519 µM); in the data set with Pseudomonas aeruginosa [1], 0.39 µg/mL (≈ 1.01 µM); in the data set on Staphylococcus aureus [2] it was 0.2 µg/mL (≈ 0.519 µM).
